In patent US20250346582A1, “SPLEEN TYROSINE KINASE INHIBITORS AND METHODS OF USE THEREOF” (THE BOARD OF TRUSTEES OF THE UNIVERSITY OF ILLINOIS, priority 2022, published 2025):

Tests used:
[1] = target: T1, pZAP70 (Homo sapiens, UniProt P43403); assay: Western blot inhibition of ZAP70 phosphorylation in Jurkat T cells; assay type: cell-based; conditions: for Emax: Immunoblotting, pZAP70, Western blot assay in Jurkat T cells, read-out: Imax (%); for inhibition of ZAP-70 phosphorylation: Jurkat T cells stimulated by OKT3, 5 μM overnight
T1 construct: host or cells: Jurkat T cells, OKT3-stimulated
T1 sequence (P43403 1-619): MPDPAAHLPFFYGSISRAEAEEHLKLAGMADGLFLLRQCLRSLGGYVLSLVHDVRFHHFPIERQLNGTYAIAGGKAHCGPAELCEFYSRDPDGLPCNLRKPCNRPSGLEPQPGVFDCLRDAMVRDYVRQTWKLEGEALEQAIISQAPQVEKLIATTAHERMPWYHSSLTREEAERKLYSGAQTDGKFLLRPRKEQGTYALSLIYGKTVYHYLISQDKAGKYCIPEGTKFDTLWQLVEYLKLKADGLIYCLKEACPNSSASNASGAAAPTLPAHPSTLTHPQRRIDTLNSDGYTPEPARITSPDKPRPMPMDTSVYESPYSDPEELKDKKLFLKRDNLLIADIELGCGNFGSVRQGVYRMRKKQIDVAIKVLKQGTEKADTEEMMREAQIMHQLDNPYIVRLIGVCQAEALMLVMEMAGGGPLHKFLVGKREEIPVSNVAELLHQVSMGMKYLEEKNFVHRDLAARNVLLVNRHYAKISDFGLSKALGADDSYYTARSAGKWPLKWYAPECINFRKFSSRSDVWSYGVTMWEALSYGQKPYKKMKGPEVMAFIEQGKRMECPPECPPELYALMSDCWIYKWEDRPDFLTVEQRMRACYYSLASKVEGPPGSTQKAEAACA
Procedure: (a) Cellular efficacy of WC35, WC36, and WC38 was determined by dose-dependent inhibition of Syk phosphorylation in Raji B cells. (b) Imax and IC50 values were determined by non-linear least-squares analysis of data using the equation: […] Each data represents average ±s.d. from triplicate measurements. […] Jurkat T cells were stimulated by OKT3. Cells were seeded at a density of 3.0×10^5 cells/well prior to incubation with inhibitors. […] IgG2 for AML cells, IgM for Raji B cells, and OKT3 (Biolegend) for Jurkat cells. […] Samples were analyzed by SDS-PAGE. Proteins were separated and transferred to Immobilon-P polyvinylidene difluoride membrane (Millipore Sigma). […] The chemiluminescence intensity of protein bands in the gel was analyzed and documented by the Azure […] Imaging System.

[2] = target: T2, PLCγ2-cSH2 (Homo sapiens, UniProt P16885); assay: Fluorescence quenching vesicle binding assay, PLCγ2-cSH2; conditions: Table 4; POPC/POPS/PIP3/dabsyl-PE (67:20:3:10) vesicles (40 μM); read-out: Imax (%)
T2 construct: polyhistidine (N); made in house; host or cells: Escherichia coli BL21 (DE3) pLysS
T2 sequence (P16885 646-735 limits assumed): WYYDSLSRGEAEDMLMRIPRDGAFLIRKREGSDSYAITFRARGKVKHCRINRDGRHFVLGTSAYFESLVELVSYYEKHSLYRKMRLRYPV
Procedure: The membrane-binding assay is based on fluorescence quenching of EGFP fused to a SH2 domain by a dark quencher containing lipid, dabsyl-PE, incorporated in lipid vesicles. The plate reader assay was performed using the Synergy™ Neo spectrofluorometer at 25° C. Nontreated black polystyrene 96-well plates (Corning) were used. Protein (10-50 nM) with the increasing concentration of vesicles with a given lipid composition in 20 mM Tris buffer, pH 7.4, containing 0.16 M NaCl was added to each row of wells and the EGFP fluorescence emission at 516 nm was measured with excitation set at 485 nm. Z′ factor for the assay system was determined as described^74. Imax and IC50 values of inhibitors were determined using the equation, I=Imax/(1+IC50/[I]) where I and [I] indicate % inhibition and inhibitor concentration, respectively. The average and standard deviation values were obtained from triplicate determinations.
We also optimized a recently developed fluorescence quenching-based lipid-binding assay^47 for high-throughput screening of these molecules for their inhibitory activity against the PIP3-SH2 interaction. Specifically, we expressed SH2 domains as EGFP-tagged proteins and directly quantified their membrane binding by monitoring the quenching of EGFP fluorescence emission intensity by a dark quencher-containing lipid, N-dimethylaminoazo-benzenesulfonyl-phosphatidylethanolamine (dabsyl-PE), incorporated in the vesicles. We then screened for compounds that inhibited binding of Syk-cSH2, BLNK-SH2, and PLCγ2-cSH2, respectively, to 1-palmitoyl-2-oleoyl-PC (POPC)/1-palmitoyl-2-oleoyl-PS (POPS)/PIP3/dabsyl-PE (67:20:3:10) vesicles while eliminating those that inhibit their non-specific binding to anionic POPC/POPS/dabsyl-PE (70:20:10) vesicles. The quality of the screening system was evaluated using 1% dimethylsulfoxide (DMSO) and 20 μM D-myo-inositol-1,3,4,5-tetraphosphate (IP4) as negative and positive controls, respectively. The clear separation of positive and negative control data and the average Z′-factor of 0.7 supported the robustness of our system for high-throughput screen of PIP3-SH2 interaction inhibitors.

[3] = test system: phosphorylation of Syk, STAT3/5 and ERK1/2; assay: Western blot of IgG2-stimulated phosphorylation in MV4-11 AML cells; assay type: cell-based; conditions: MV4-11 cells, 5 μM overnight
Procedure: FIGS. 2A-2D show the inhibition of the signaling activity and proliferation of MV4-11 AML cells by Syk-cSH2 inhibitors. […] GAPDH was used as a gel loading control. […] Imax and IC50 values were determined by non-linear least-squares analysis of data using the equation: I=Imax/(1+IC50/[inhibitor]) where I indicates % inhibition at a given inhibitor concentration ([inhibitor]). (c) Inhibition of IgG2-stimulated phosphorylation of Syk, STAT3/STAT5 and ERK1/2 in entospletinib-resistant MV-4-11 cells by 5 μM of WC35, WC36, and WC38.
(§1) Cells were seeded at a density of 3.0×10^5 cells/well prior to incubation with inhibitors. Cells were incubated with 1-5 μM of Syk inhibitors overnight and stimulated with different antibodies: IgG2 for AML cells, IgM for Raji B cells, and OKT3 (Biolegend) for Jurkat cells. The cells were lysed in NP40 lysis buffer (50 mM Tris, pH 7.5, 150 mM NaCl, 1 mM EDTA, 1% NP40, 10% glycerol, 10 mM NaF, 10 mM Na3VO4, and the protease inhibitor cocktail) at 4° C. and the cell debris was removed by centrifugation. Samples were analyzed by SDS-PAGE. Proteins were separated and transferred to Immobilon-P polyvinylidene difluoride membrane (Millipore Sigma). The membrane was blocked with 5% bovine serum albumin for 1 h and incubated overnight at 4° C. with various antibodies (1:1000 dilution for all antibodies). After the unbound antibodies were removed by washing with 0.1% Tris buffer saline with 0.1% Tween20, the membranes were incubated with the horseradish peroxidase secondary antibody (1:5000 dilution) for 1 h at room temperature. The membranes were washed three more times with 0.1% Tris buffer saline with 0.1% Tween20 to remove the unbound horseradish peroxidase secondary antibody before imaging. The chemiluminescence intensity of protein bands in the gel was analyzed and documented by the Azure 500Q Imaging System.

[4] = test system: phosphorylation of Syk, ERK1/2 and STAT3/5; assay: Western blot of phosphorylation in entospletinib-resistant MV4-11 cells; assay type: cell-based; conditions: 5 μM
Procedure: as §1
Then the concentration was maintained at 5 μM.

Emax [1] [%]	Emax [2] [%]	SMILES	inhibition of ZAP-70 phosphorylation [1]	inhibition of phosphorylation of Syk, STAT3/5 and ERK1/2 [3]	inhibition of phosphorylation of Syk, ERK1/2 and STAT3/5 [4]
< 10	< 10	[N-]=[N+]=C(C(=O)OC1CCCCC1)C(Nc1ncccn1)c1ccc[nH]1 (racemic) [WC38, Cyclohexyl 2-diazo-3-(pyrimidin-2-ylamino)-3-(1H-pyrrol-2-yl)propanoate]	did not inhibit phosphorylation and activation of ZAP-70	suppressed phosphorylation of Syk and STAT3/5 as potently as entospletinib but were modestly less active than entospletinib for ERK1/2 inhibition	significantly less active than WC36
< 10	< 10	[N-]=[N+]=C(C(=O)OC1CCCCC1)C(Nc1ncccn1)c1ccco1 (racemic) [WC35, Cyclohexyl 2-diazo-3-(furan-2-yl)-3-(pyrimidin-2-ylamino)propanoate]	did not inhibit phosphorylation and activation of ZAP-70	less active than entospletinib for both Syk and ERK1/2 inhibition	significantly less active than WC36
< 10	< 10	[N-]=[N+]=C(C(=O)OC1CCCCC1)C(Nc1ncccn1)c1c[nH]c2ccccc12 (racemic) [WC36, Cyclohexyl 2-diazo-3-(1H-indol-3-yl)-3-(pyrimidin-2-ylamino)propanoate]	did not inhibit phosphorylation and activation of ZAP-70	suppressed phosphorylation of Syk and STAT3/5 as potently as entospletinib but were modestly less active than entospletinib for ERK1/2 inhibition	potently suppressed the phosphorylation and activation of Syk, ERK1/2, and STAT3/5
